Values quoted from earlier work in patent US8629099B2, “Ophthalmic compositions comprising a dipeptide” (Bausch & Lomb Incorporated, priority 2008, dated 2014).

Conditions: lower pKa given in text

NCC(=O)O [glycine]
pKa values (first value): 2.4
